Test results published in patent US20230107277A1, “SUBSTITUTED PYRIDAZINE COMPOUND” (Astellas Pharma Inc., priority 2020, published 2023).

System: IL-1β Production of THP-1
Assay: Test on IL-1β production of THP-1 (LPS and ATP stimulation, ELISA)
Format: cell-based
Conditions: Homo sapiens; PMA-differentiated THP-1 cells, LPS 50 ng/mL and ATP 5 mM, 2 hours
Experimental: 50 ng/mL of PMA (phorbol myristate acetate, SIGMA, P1585) was added to THP-1 cells, and the cells were cultured at 37° C. for 2 days. […] LPS (Lipopolysaccharide, SIMGA, L2880) and ATP (Adenosine triphosphate, SIGMA, A2383) were added to final concentrations of 50 ng/mL and 5 mM, respectively, and the cells were cultured at 37° C. for 2 hours. The supernatant was collected, and the concentration of IL-1β was measured by an ELISA method (DuoSet ELISA human IL-1β, R&D Systems, DY201). […] The IC50 value was calculated by sigmoid […] model non-linear regression analysis.

Row | Structure (SMILES) | IC50
1 | Cc1c(NC[C@@H](C)CO)nnc(-c2ccc(C(F)(F)F)cc2O)c1C (single isomer, unassigned) [Example 76, 2-(6-{[(R2R)-3-hydroxy-2-methylpropyl]amino}-4,5-dimethylpyridazine-3-yl)-5-(trifluoromethyl)phenol] | 26 nM
2 | OCCCNc1cc(-c2ccccc2)c(-c2ccc(C(F)(F)F)cc2)nn1 [Example 1, 3-({5-phenyl-6-[4-(trifluoromethyl)phenyl]pyridazin-3-yl}amino)propan-1-ol] | 980 nM
3 | OCCCNc1nnc(-c2ccc(C(F)(F)F)cc2)cc1-c1ccccc1 [Example 2] | 1800 nM
4 | CCOC(=O)c1cc(-c2ccc(C(F)(F)F)cc2C(F)(F)F)nnc1NC[C@@H](C)O [Example 3, ethyl 6-[2,4-bis(trifluoromethyl)phenyl]-3-{[(2R)-2-hydroxypropyl]amino}pyridazine-4-carboxylate] | 120 nM
5 | Cc1cc(C)n(-c2cc(-c3ccc(C(F)(F)F)cc3C(F)(F)F)nnc2NC[C@@H](C)O)n1 [Example 15] | 97 nM
6 | Cc1cc(N[C@@H]2CCCC[C@H]2O)nnc1-c1ccc(C(F)(F)F)cc1C(F)(F)F [Example 16] | 200 nM
7 | Cc1cc(-c2ccc(C(F)(F)F)cc2C(F)(F)F)nnc1N[C@@H]1CCCC[C@H]1O [Example 17] | 110 nM
8 | C[C@@H](O)CNc1nnc(-c2ccc(C(F)(F)F)cc2C(F)(F)F)cc1OCCOCc1ccccc1 [Example 19] | 610 nM
9 | Cc1c(NC[C@H](C)O)nnc(-c2ccc(C(F)(F)F)cc2C(F)(F)F)c1C [Example 20] | 1500 nM
10 | COc1ccc(-c2cc(C)c(NC[C@@H](C)O)nn2)c(C(F)(F)F)c1 [Example 21] | 160 nM
11 | COc1ccc(-c2cc(C)c(NC[C@@H](C)O)nn2)c(C2CC2)c1 [Example 22] | 530 nM
12 | Cc1cc(-c2ccc(Cl)cc2C(F)(F)F)nnc1NC[C@@H](C)O [Example 23] | 120 nM
13 | Cc1cc(NC[C@@H](C)O)nnc1-c1ccccc1O [Example 25] | 500 nM
14 | Cc1cc(NC[C@@H](C)O)nnc1-c1ccc(F)cc1O [Example 27] | 190 nM

Now from value to compound:

Row | IC50 | Structure (SMILES)
15 | 200 nM | Cc1cc(NC[C@@H](C)O)nnc1-c1ccc(C(F)(F)F)cc1C(F)(F)F [Example 5, (2R)-1-({6-[2,4-bis(trifluoromethyl)phenyl]-5-methylpyridazin-3-yl}amino)propan-2-ol]
16 | 90 nM | Cc1cc(-c2ccc(C(F)(F)F)cc2C(F)(F)F)nnc1NC[C@@H](C)O [Example 6, (2R)-1-({6-[2,4-bis(trifluoromethyl)phenyl]-4-methylpyridazin-3-yl}amino)propan-2-ol]
17 | 17 nM | Cc1cc(NC[C@@H](C)O)nnc1-c1ccc(C(F)(F)F)cc1O [Example 7, 2-(6-{[(R2R)-2-hydroxypropyl]amino}-4-methylpyridazin-3-yl)-5-(trifluoromethyl)phenol]
18 | 160 nM | Cc1cc(-c2ccc(C(F)(F)F)cc2O)nnc1NC[C@@H](C)O [Example 8, 2-(6-{[(R2R)-2-hydroxypropyl]amino}-5-methylpyridazin-3-yl)-5-(trifluoromethyl)phenol]
19 | 200 nM | CC(O)CNc1ccc(-c2ccc(C(F)(F)F)cc2C(F)(F)F)nn1 (centres unmarked) [Example 10]
20 | 150 nM | CC(=O)NCCCCNc1ccc(-c2ccc(C(F)(F)F)cc2C(F)(F)F)nn1 [Example 11]
21 | 150 nM | C[C@@H](O)CNc1ccc(-c2ccc(C(F)(F)F)cc2C(F)(F)F)nn1 [Example 12]
22 | 120 nM | C[C@@H](O)CNc1nnc(-c2ccc(C(F)(F)F)cc2C(F)(F)F)cc1-n1cccn1 [Example 13]
23 | 330 nM | C[C@@H](O)CNc1nnc(-c2ccc(C(F)(F)F)cc2C(F)(F)F)cc1C(=O)N(C)C [Example 14]
24 | 260 nM | C[C@@H](O)CNc1ccc(-c2ccc(C(F)(F)F)cc2O)nn1 [Example 18]
25 | 560 nM | CC(C)c1cc(-c2ccc(C(F)(F)F)cc2C(F)(F)F)nnc1NC[C@@H](C)O [Example 24]
26 | 54 nM | CC(C)c1cc(NC[C@@H](C)O)nnc1-c1ccc(C(F)(F)F)cc1O [Example 26]
